Read-outs that look alike come from different tables or passages of the source. Square brackets hold non-standard residues; d marks the D form. Ends that are not written are not given here. Peptide text beside a SMILES is read from it. * marks the point of attachment. Dicyclohexylacetyl = O=C(C(C1CCCCC1)C1CCCCC1)*; Butanoyl(2,2-Me2) = CCC(C)(C)C(=O)*; Octanoyl(6-Me) = CCC(C)CCCCC(=O)*; Octanoyl = CCCCCCCC(=O)*; X1 = CCCCC(CC)C(=O)*
Assays:
LPS S. Minnesota Re595 = experiment: Endpoint LAL activity (Limulus gel-clotting test), inhibition of lipid A-induced LAL enzymatic cascade; format: biochemical; settings: sensibility 0.125 EU/ml, peptide:LPS 100:1 (w/w), minimum of 6 tests in triplicate
Procedure: (§1) The principle of lipid A-induced pro-inflammatory cytokine activity leading to hemorrhagic dermonecrosis (classical Shwartzmann reaction) was tested in rabbit, an animal model very close to humans in terms of sensitivity to LPS activity, and was compared to the inhibition of the lipid A-induced LAL enzymatic cascade activation leading to clot. Thereby, New Zealand White rabbits were injected in the shaved dorsal region with S. minnesota Re595 lipid A alone or with peptide 1:100 (w/w) (5 μg in 0.2 ml saline buffer; route i.d.). […] Polymyxin B (PmB) was used as a control.

LPS Re595 = experiment: Local Shwartzmann reaction in rabbit (lipid A-induced hemorrhagic dermonecrosis); format: in vivo, New Zealand White rabbits; settings: i.d. injection in shaved dorsal region; open necrosis observed after 72-96 hours; minimum 3 injections in minimum 3 rabbits
Procedure: as §1

C. neoformans ATCC 32045 = format: cell-based
Procedure: C. neoformans ATCC 32045 cultures were maintained on yeast medium (YM; Difco Laboratories, Detroit, Mich.) agar plates at 4° C. Prior to the assay, the cultures were grown on agar plates and incubated for 72 hrs at 26° C. Two colonies of these newly grown fungal cultures were then inoculated in 5 ml of 2×YM broth, vortexed, and diluted 10-fold in 2×YM broth, for an approximate final assay concentration of 1×105 to 5×10^5 CFU/ml. In 96-well tissue culture plates, fungal suspensions in 2×YM broth were added to the peptides dispensed at concentrations ranging from 1 mg/ml to 1 μg/ml derived from serial twofold dilutions in sterile water. The plates were then incubated for 72 hrs at 26° C. The relative percent growth of the fungi found for each test sample was determined by the optical density at 620 nm (OD620) by using a Titertek Multiskan Plus apparatus. […] The IC50 were calculated by using a sigmoidal curve-fitting software program (Graphpad Prism; ISI Software, San Diego, Calif.).

[1] = 50% growth inhibition, OD620, 72 hrs at 26° C., 2×YM broth
[2] = lowest concentration that resulted in 2% growth, OD620, 72 hrs at 26° C., 2×YM broth

average IC50 (C. neoformans ATCC 32045; ATCC 32045, 72 h) [µg/mL]	average MIC (C. neoformans ATCC 32045; ATCC 32045, 72 h) [µg/mL]	Compound	Endpoint LAL activity peptide: LPS Re595 100:1 (w/w) (LPS S. Minnesota Re595)	Local Shwartzmann reaction in rabbit peptide: LPS Re595 100:1 (w/w) (LPS Re595)	average IC50 (C. neoformans ATCC 32045; [1]) [µg/mL]	average MIC (C. neoformans ATCC 32045; [2]) [µg/mL]
		CC[C@H](C)[C@@H]1NC(=O)[C@H](CCCNC(=N)N)NC(=O)[C@H]([C@@H](C)CC)NC(=O)[C@H](CCCNC(=N)N)NC(=O)[C@H](Cc2c[nH]c3ccccc23)NC(=O)[C@H](Cc2ccccc2)NC(=O)[C@H](CCCNC(=N)N)NC(=O)[C@H](CCCNC(=N)N)NC1=O [VF50, cyclo FWRIRIRR-NH2] (cyclo(FWRIRIRR))	NEGATIVE	NEGATIVE		
		CC[C@H](C)[C@H](NC(=O)[C@H](CC(N)=O)NC(=O)[C@H](CCCNC(=N)N)NC(=O)[C@H](CCC(N)=O)NC(=O)[C@H](Cc1c[nH]c2ccccc12)NC(=O)[C@@H](N)Cc1ccccc1)C(=O)N[C@@H](CCCNC(=N)N)C(=O)N[C@@H](CCCCN)C(=O)N[C@@H](Cc1c[nH]c2ccccc12)C(=O)N[C@@H](CCCNC(=N)N)C(N)=O [VS1-15, FWQRNIRKWR-NH2] (H-FWQRNIRKWR-NH2)	NEGATIVE	NEGATIVE	5	16
		CC[C@H](C)[C@H](NC(=O)[C@H](CCCNC(=N)N)NC(=O)[C@H](CCCNC(=N)N)NC(=O)[C@H](CCC(N)=O)NC(=O)[C@H](Cc1c[nH]c2ccccc12)NC(=O)[C@@H](N)Cc1ccccc1)C(=O)N[C@@H](CCCNC(=N)N)C(=O)N[C@@H](CCCNC(=N)N)C(=O)N[C@@H](Cc1c[nH]c2ccccc12)C(=O)N[C@@H](CCCNC(=N)N)C(=O)N[C@@H](CCCNC(=N)N)C(N)=O [VS1-18, FWQRRIRRWRR-NH2] (H-FWQRRIRRWRR-NH2; N-terminus assumed)	NEGATIVE	NEGATIVE	7	32
		CC[C@H](C)[C@H](NC(=O)[C@H](CC(N)=O)NC(=O)[C@H](CCCNC(=N)N)NC(=O)[C@H](CCC(N)=O)NC(=O)[C@H](Cc1c[nH]c2ccccc12)NC(=O)[C@H](Cc1ccccc1)NC(=O)C(C)(C)CC)C(=O)N[C@@H](CCCNC(=N)N)C(=O)N[C@@H](CCCCN)C(=O)N[C@@H](Cc1c[nH]c2ccccc12)C(=O)N[C@@H](CCCNC(=N)N)C(N)=O [VS1-42, 2,2-dimethylbutanoyl FWQRNIRKWR-NH2] ({Butanoyl(2,2-Me2)}-FWQRNIRKWR-NH2)	NEGATIVE	NEGATIVE	6	16
		CC[C@H](C)[C@H](NC(=O)[C@H](CCCNC(=N)N)NC(=O)[C@@H](NC(=O)[C@H](CCCNC(=N)N)NC(=O)[C@H](Cc1c[nH]c2ccccc12)NC(=O)[C@H](Cc1ccccc1)NC(=O)[C@@H]1CCCN1C(=O)C(C)(C)CC)[C@@H](C)CC)C(=O)N[C@@H](CCCNC(=N)N)C(=O)N[C@@H](CCCNC(=N)N)C(N)=O [VS1-52, 2,2-dimethylbutanoyl PFWRIRIRR-NH2] ({Butanoyl(2,2-Me2)}-PFWRIRIRR-NH2)	NEGATIVE	NEGATIVE	2	4
2	4	CC[C@H](C)[C@H](NC(=O)[C@H](CCCNC(=N)N)NC(=O)[C@@H](NC(=O)[C@H](CCCNC(=N)N)NC(=O)[C@H](Cc1c[nH]c2ccccc12)NC(=O)[C@H](Cc1ccccc1)NC(=O)C(C)(C)CC)[C@@H](C)CC)C(=O)N[C@@H](CCCNC(=N)N)C(=O)N[C@@H](CCCNC(=N)N)C(N)=O [VS1-57, 2,2-dimethylbutanoyl FWRIRIRR-NH2] ({Butanoyl(2,2-Me2)}-FWRIRIRR-NH2)				
6	16	CCC(C)CCCCC(=O)N[C@@H](Cc1ccccc1)C(=O)N[C@@H](Cc1c[nH]c2ccccc12)C(=O)N[C@@H](CCCNC(=N)N)C(=O)N[C@H](C(=O)N[C@@H](CCCNC(=N)N)C(=O)N[C@H](C(=O)N[C@@H](CCCNC(=N)N)C(=O)N[C@@H](CCCNC(=N)N)C(N)=O)[C@@H](C)CC)[C@@H](C)CC (stereo partly shown) [VS1-58, 6-methyloctanoyl FWRIRIRR-NH2] ({Octanoyl(6-Me)}-FWRIRIRR-NH2)				
14	62	CC[C@H](C)[C@H](NC(=O)[C@H](CCCNC(=N)N)NC(=O)[C@@H](NC(=O)[C@H](CCCNC(=N)N)NC(=O)[C@H](Cc1c[nH]c2ccccc12)NC(=O)[C@H](Cc1ccccc1)NC(=O)C(C1CCCCC1)C1CCCCC1)[C@@H](C)CC)C(=O)N[C@@H](CCCNC(=N)N)C(=O)N[C@@H](CCCNC(=N)N)C(N)=O [VS1-59, dicyclohexylacetyl FWRIRIRR-NH2] (Dicyclohexylacetyl-FWRIRIRR-NH2)				
10	32	CCCCCCCC(=O)N[C@@H](Cc1ccccc1)C(=O)N[C@@H](Cc1c[nH]c2ccccc12)C(=O)N[C@@H](CCCNC(=N)N)C(=O)N[C@@H](CCCNC(=N)N)C(=O)N[C@@H](Cc1ccccc1)C(=O)N[C@@H](Cc1c[nH]c2ccccc12)C(=O)N[C@@H](CCCNC(=N)N)C(=O)N[C@@H](CCCNC(=N)N)C(N)=O [VS1-60, octanoyl FWRRFWRR-NH2] (Octanoyl-FWRRFWRR-NH2)				
6	16	CCCCC(CC)C(=O)N[C@@H](Cc1ccccc1)C(=O)N[C@@H](Cc1c[nH]c2ccccc12)C(=O)N[C@@H](CCCNC(=N)N)C(=O)N[C@@H](CCCNC(=N)N)C(=O)N[C@@H](Cc1ccccc1)C(=O)N[C@@H](Cc1c[nH]c2ccccc12)C(=O)N[C@@H](CCCNC(=N)N)C(=O)N[C@@H](CCCNC(=N)N)C(N)=O (stereo partly shown) [VS1-61, 2-ethylhexanoyl FWRRFWRR-NH2] (X1-FWRRFWRR-NH2)				
4	16	CCC(C)(C)C(=O)N[C@@H](Cc1ccccc1)C(=O)N[C@@H](Cc1c[nH]c2ccccc12)C(=O)N[C@@H](CCCNC(=N)N)C(=O)N[C@@H](CCCNC(=N)N)C(=O)N[C@@H](Cc1ccccc1)C(=O)N[C@@H](Cc1c[nH]c2ccccc12)C(=O)N[C@@H](CCCNC(=N)N)C(=O)N[C@@H](CCCNC(=N)N)C(N)=O [VS1-62, 2,2-dimethylbutanoyl FWRRFWRR-NH2] ({Butanoyl(2,2-Me2)}-FWRRFWRR-NH2)				
11	62	CCC(C)CCCCC(=O)N[C@@H](Cc1ccccc1)C(=O)N[C@@H](Cc1c[nH]c2ccccc12)C(=O)N[C@@H](CCCNC(=N)N)C(=O)N[C@@H](CCCNC(=N)N)C(=O)N[C@@H](Cc1ccccc1)C(=O)N[C@@H](Cc1c[nH]c2ccccc12)C(=O)N[C@@H](CCCNC(=N)N)C(=O)N[C@@H](CCCNC(=N)N)C(N)=O (stereo partly shown) [VS1-63, 6-methyloctanoyl FWRRFWRR-NH2] ({Octanoyl(6-Me)}-FWRRFWRR-NH2)				
6	32	N=C(N)NCCC[C@H](NC(=O)[C@H](CCCNC(=N)N)NC(=O)[C@H](Cc1c[nH]c2ccccc12)NC(=O)[C@H](Cc1ccccc1)NC(=O)[C@H](CCCNC(=N)N)NC(=O)[C@H](CCCNC(=N)N)NC(=O)[C@H](Cc1c[nH]c2ccccc12)NC(=O)[C@H](Cc1ccccc1)NC(=O)C(C1CCCCC1)C1CCCCC1)C(N)=O [VS1-64, dicyclohexylacetyl FWRRFWRR-NH2] (Dicyclohexylacetyl-FWRRFWRR-NH2)				
		FWQRNIRKVRRRI-NH2 [Peptide P1-12]	NEGATIVE	NEGATIVE		
		FWQRNYRKVR-NH2 [Peptide P1-39]	NEGATIVE	NEGATIVE		
		FwRNIRIRR-NH2 (F[dW]RNIRIRR-NH2; N-terminus assumed; SMILES CC[C@H](C)[C@H](NC(=O)[C@H](CCCNC(=N)N)NC(=O)[C@@H](NC(=O)[C@H](CC(N)=O)NC(=O)[C@H](CCCNC(=N)N)NC(=O)[C@@H](Cc1c[nH]c2ccccc12)NC(=O)[C@@H](N)Cc1ccccc1)[C@@H](C)CC)C(=O)N[C@@H](CCCNC(=N)N)C(=O)N[C@@H](CCCNC(=N)N)C(N)=O) [Peptide P2-11]	NEGATIVE	NEGATIVE		
		KRWSWKK-NH2 [Peptide P1-63]	NEGATIVE	NEGATIVE		
		RFWQRNIRIRR-NH2 [Peptide P2-18]	NEGATIVE	NEGATIVE		
		RWQRNIRIRR-NH2 [Peptide P2-19]	NEGATIVE	NEGATIVE		

From US7960339B2, “Antimicrobial peptides” (Österreichische Akademie der Wissenschaften, priority 2006, dated 2011)
